Assays:
[1] = system: Leishmania; test: Antimicrobial activity against Leishmania; format: functional, organism-based
[2] = system: Bacteria; test: Antimicrobial activity against bacteria; format: functional, organism-based
[3] = biological target: T1, Tyrosinase (Homo sapiens, UniProt P14679); test: Inhibition of tyrosinase (unknown origin)
T1 sequence (P14679 whole entry): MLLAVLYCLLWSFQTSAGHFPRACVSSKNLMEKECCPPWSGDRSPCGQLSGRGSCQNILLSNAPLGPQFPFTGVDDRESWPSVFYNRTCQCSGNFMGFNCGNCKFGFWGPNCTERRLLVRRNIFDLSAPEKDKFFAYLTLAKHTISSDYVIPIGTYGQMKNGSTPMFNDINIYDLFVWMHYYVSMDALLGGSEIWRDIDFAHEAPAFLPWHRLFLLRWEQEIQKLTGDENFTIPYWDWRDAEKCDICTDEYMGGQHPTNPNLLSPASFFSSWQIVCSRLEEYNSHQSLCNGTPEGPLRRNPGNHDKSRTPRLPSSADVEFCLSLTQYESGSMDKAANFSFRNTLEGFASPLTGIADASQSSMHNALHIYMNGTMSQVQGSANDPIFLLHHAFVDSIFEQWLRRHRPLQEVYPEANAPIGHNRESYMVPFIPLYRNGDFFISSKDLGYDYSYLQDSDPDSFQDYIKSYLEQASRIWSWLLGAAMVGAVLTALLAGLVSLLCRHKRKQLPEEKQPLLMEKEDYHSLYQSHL

[4] = Antioxidant activity assessed as DPPH radical scavenging activity incubated for 30 mins by UV-spectrophotometric method; format: functional

Structure (SMILES) | IC50 [1] [µM] | IC50 [2] [µM] | IC50 [3] [µM] | IC50 [4] [µM]
COC(=O)[C@H]1O[C@@H](Oc2cc(O)c3c(=O)cc(-c4ccc(OC)cc4)oc3c2)[C@H](O)[C@@H](O)[C@@H]1O | > 50 | > 50 | > 50 | 
C=C[C@]1(C)C[C@H](OC(=O)/C(=C/C)CO)[C@@H]2[C@H](OC(=O)[C@H]2CN2CCC[C@H]2C(=O)O)[C@H]1C(=C)CO | > 50 | > 50 | > 50 | 
C=C(CO)C(=O)O[C@H]1C/C(C)=C/CC/C(CO)=C/[C@H]2OC(=O)[C@@H](CN3CCC[C@H]3C(=O)O)[C@H]12 | > 50 | > 50 | > 50 | 
C=C[C@]1(C)C[C@H](OC(=O)[C@@H](C)CO)[C@@H]2[C@H](OC(=O)[C@H]2CN2CCC[C@H]2C(=O)O)[C@H]1C(=C)CO | > 50 | > 50 | > 50 | 
C=C[C@]1(C)C[C@H](OC(=O)C(=C)CO)[C@@H]2[C@H](OC(=O)[C@H]2CN2CCC[C@H]2C(=O)O)[C@H]1C(=C)CO | > 50 | > 50 | > 50 | 
C[C@@H]1O[C@@H](Oc2cc(O)c3c(=O)cc(-c4ccc(O)cc4)oc3c2)[C@H](O)[C@H](O)[C@H]1O | > 50 | > 50 | > 50 | 
O=C(/C=C/c1ccc(O)c(O)c1)O[C@H]1[C@H](O)[C@@H](O)[C@H](Oc2cc(O)c3c(=O)cc(-c4ccc(O)c(O)c4)oc3c2)O[C@@H]1CO | > 50 | > 50 | > 50 | 68.9
COC(=O)[C@H]1O[C@@H](Oc2cc(O)c3c(=O)cc(-c4ccc(O)cc4)oc3c2)[C@H](O)[C@@H](O)[C@@H]1O | > 50 | > 50 | > 50 | 
COc1ccc(-c2cc(=O)c3c(O)cc(O[C@@H]4O[C@H](CO[C@@H]5O[C@@H](C)[C@H](O)[C@@H](O)[C@H]5O)[C@@H](O)[C@H](O)[C@H]4O)cc3o2)cc1 [ACACIIN] | > 50 | > 50 | > 50 | 
O=c1cc(-c2ccc(O)cc2)oc2cc(O[C@@H]3O[C@H](CO)[C@@H](O)[C@H](O)[C@H]3O)cc(O)c12 [APIGETRIN] | > 50 | > 50 | > 50 | 
COc1ccc(C[C@H]2COC(=O)[C@@H]2Cc2ccc(O[C@@H]3O[C@H](CO)[C@@H](O)[C@H](O)[C@H]3O)c(OC)c2)cc1OC [ARCTIIN] | > 50 | > 50 | > 50 | 
O=c1c(O[C@@H]2O[C@H](CO)[C@@H](O)[C@H](O)[C@H]2O)c(-c2ccc(O)c(O)c2)oc2cc(O)cc(O)c12 [ISOQUERCETIN] | > 50 | > 50 | > 50 | 75.3
C[C@@H]1O[C@@H](OC[C@H]2O[C@@H](Oc3cc(O)c4c(=O)cc(-c5ccc(O)cc5)oc4c3)[C@H](O)[C@@H](O)[C@@H]2O)[C@H](O)[C@H](O)[C@H]1O [ISORHOIFOLIN] | > 50 | > 50 | > 50 | 
COc1ccc(-c2cc(=O)c3c(O)cc(O[C@@H]4O[C@H](CO)[C@@H](O)[C@H](O)[C@H]4O)cc3o2)cc1 [TILIANINE] | > 50 | > 50 | > 50 | 

From ChEMBL document CHEMBL4392888, “Isolation of Sesquiterpene-Amino Acid Conjugates, Onopornoids A-D, and a Flavonoid Glucoside from Onopordum alexandrinum” (J Nat Prod, 2019)
